Measurements reported in US7524851B2 (Robert Bosch Gesellschaft fur Medizinische Forschung (RBMF), priority 2003, dated 2009).

System: IκB
Test: IκB phosphorylation and expression (Western blot)
Type: cell-based, human
Details: 3 days
Experimental: The cells were then washed in PBS, resuspended in 1 ml of T40E10N150 buffer (40 mM Tris-HCl [pH 7.9], 10 mM EDTA [pH 8.0], 150 mM NaCl), put on ice for 5 minutes, and centrifuged for 4 minutes at 4° C. at 1,000 rpm. The cell pellet was then resuspended on ice in 70 μl of buffer (10 mM HEPES [pH 8.0], 400 mM NaCl, 0.1 mM EDTA, 5% glycerol, 1 mM DTT, 1 mM PMSF) and centrifuged at 15,000 rpm for 30 minutes at 4° C. The protein concentrations in supernatants were determined with the Bio-Rad Protein Assay (Bio-Rad; Munich, Germany).
Western blots: Equal amounts of extract (30 μg) were added to 8 μl of electrophoresis sample buffer (Firma Roth; Karlsruhe, Germany). After boiling, the extracts were loaded on 15% SDS-PAGE gels and electrophoretically separated. Proteins were transferred to nitrocellulose membranes, and detection was performed with the ECL Western blotting analysis system (Amersham). […]

Sc1ncnc2nc[nH]c12 [6-MP, 6-mercaptopurine]
IκB phosphorylation: suppressed
IκB protein expression levels: unchanged
